{"source": "patent US20110160266A1", "about": "“Novel Anti-Arrhythmia Agent” (THE UAB RESEARCH FOUNDATION, priority 2008, published 2011)", "key": {"rat left atria [1]": {"test_system": "rat left atria", "experiment": "tissue or blood", "conditions": "5 min, read-out: IC50 for suppression of triggered ectopic contractions induced by ATX II"}, "rat left atria [2]": {"test_system": "rat left atria", "experiment": "Reversal or prevention of 2-APB-induced SMA in superfused rat left atria", "procedure": "(A) Titration curve of ranolazine reversal of SMA in superfused left atrial appendage. Superfused appendages (n=7) were treated with 2-APB and following the appearance of SMA they were titrated with increasing concentrations of ranolazine for 3-5 min at any concentration. Rates of SMA in the absence of pacing were recorded. (B) Typical raw mechanical data for an appendage treated with 2-APB and then with 0, 10 or 80 μM ranolazine. All data are in the absence of pacing. […]\nTo test whether an anion transport inhibitor affected SMA, atria (n=7) were paced at 0.1 Hz in KH and exposed to 15 μM 2-APB. Following the appearance of SMA, they were titrated with 100 to 400 μM DIDS for 3 to 5 min at each concentration. Whether SMA occurred at the end of each titration period was recorded.\nIn these experiments, a 2-APB model system was used to simulate abnormal automaticity. Specifically, paced (0.1 Hz) superfused left atria were treated with 2-APB (20 μM) and the pacing stimulus was stopped after the appearance of SMA. SKF-96365 (25 μM) was then added to the superfusate and the effect on SMA was measured.\n(§1) Additional experiments determined the concentration-dependence of SKF-96365 inhibtion of SMA. These experiments were performed as described above except that various concentrations of SKF-96365 were added to the left atrial superfusate (about 10-65 μM).\nIn these experiments, a 2-APB model system was used to simulate abnormal automaticity. Specifically, superfused left atria were exposed to 0 or to 50 μM SKF-96365 for 10 min. Following this pre-incubation, muscles were titrated with increasing concentrations of 2-APB (0-30 μM) and the rate of SMA was measured about 10 min later in the absence of pacing."}, "rat left atria [3]": {"test_system": "rat left atria"}, "rat left atria [4]": {"test_system": "rat left atria", "experiment": "Chaotic, fibrillation-like activity in left atria at 37° C., paced at 6 Hz", "quoted_text": "In this example, it was evaluated whether SKF-96365 could reverse chaotic, fibrillation-like activity. In these experiments, left atria were superfused at 37° C., paced at 6 Hz (a physiological rate under these conditions), exposed to 300 nM BayK 8644 to load calcium and then to 20 μM 2-APB to induce tachycardic activity."}, "rat left atria [5]": {"test_system": "rat left atria", "experiment": "Suppression of STA induced by 2-APB plus BayK 8644 or isoproterenol in left atria", "procedure": "3 Hz-paced left atria (n=9 per group) were superfused (i) in Krebs-Henseleit alone or (ii) they were treated with 20 μM 2-APB for 10 min, (iii) with 300 nM BayK 8644 for 10 min and with 20 μM 2-APB for 10 min, or (iv) they were treated with 300 nM BayK 8644 and 20 μM 2-APB for 10 min, then with 70 μM zatebradine (3-[3-[[2-(3,4-Dimethoxyphenyl)ethyl]methyl amino]propyl]-1,3,4,5-tetrahydro-7,8,-dimethoxy-2H-3-benzazepin-2-one hydrochloride) for 10 min (Baruscotti et al., 2005). Pacing was interrupted at these times and rates of SMA were recorded.\nLeft atria (n=9) were paced at 0.1 Hz, treated with 300 nM BayK 8644 for 5 min, then with 20 μM 2-APB for 10 min, and the pacing stimulus was stopped. These preparations then were incubated with six increasing concentrations of zatebradine (10-100 μM) for 3-5 min at each concentration, and rates of SMA were recorded. Untreated right atria (n=9) also were titrated with zatebradine and its effect on contraction frequency was recorded.\nTo test whether zatebradine affects left atrial force of contraction, two groups of left atria (n=9 per group) were paced at 3 Hz and treated with 300 nM BayK 8644. Five minutes later one group was incubated with six increasing concentrations of zatebradine (10-100 μM) for 3-5 min at each concentration, and forces of contraction were recorded. A second group was treated with BayK 8644 but not zatebradine, and forces of contraction were recorded at corresponding times.\nTo test whether zatebradine affects the SMA occurring in the presence of 2-APB and isoproterenol, left atria (n=7) were paced at 0.1 Hz, treated with 30 nM isoproterenol for 5 min, then with 20 μM 2-APB for 10 min, and the pacing stimulus was stopped. Rates of SMA were recorded, these left atria were exposed to 70 μM zatebradine for 10 min, and rates of SMA were recorded again. A group of right atria (n=7) also were exposed to 30 nM isoproterenol for 5 min and then to 70 μM zatebradine for 10 min. Right atrial contraction frequency was recorded at these two times.\nTo test whether ZD-7288, an If inhibitor structurally unrelated to zatebradine (Baruscotti et al., 2005; Sanders et al., 2006) affects the SMA occurring in the presence of 2-APB and BayK 8644, rat left atria (n=7) were treated with 300 nM BayK 8644 for 5 min, then with 20 μM 2-APB for 10 min, and the rates of ectopic activity were recorded. These atria then were incubated with six increasing concentrations of ZD-7288 (10-100 μM) for 3-5 min at each concentration, and the rates of SMA were recorded. Right atria (n=7) were titrated similarly with ZD-7288 (0-100 μM) and the change in their contraction frequency was recorded.\nIn these experiments, a 2-APB model system was used to simulate tachycardic abnormal automaticity. Specifically, superfused left atria were treated sequentially with 300 nM BayK 8644, an activator of voltage-dependent calcium entry, which loads myocytes with calcium, and then with 2-APB (20 μM) to activate the putative myocyte system for abnormal automaticity. […] SKF-96365 (10 μM) was added to the superfusate. SKF-96365 reversed STA in these left atria within 2-3 min and the muscle became quiescent in the absence of pacing (FIG. 34, “Rest”).\nas §1, with “inhibition” for “inhibtion”, “STA.” for “SMA.”, “10-70” for “10-65”, “μM). Exposing left atria to various concentrations of SKF-96365 reversed STA (FIG. 35).” for “μM).”"}}, "note": "Entries after “also recorded” stand apart in the source; their conditions may differ. Where a name gives a salt, the structure may show the parent alone.", "data": [{"smiles": "COc1ccc(CCCOC(Cn2ccnc2)c2ccc(OC)cc2)cc1", "note": "(stereo not drawn) [SKF-96365, 1-[β-(3-(4-Methoxyphenyl)propoxy)-4-methoxyphenethyl]-1H-imidazole hydrochloride]", "values": [{"measurement": "IC50", "setting": "rat left atria [1]", "value": "~12", "unit": "µM"}, {"measurement": "effect on normal excitation-contraction coupling", "setting": "rat left atria [2]; 25 μM SKF-96365, 0.1 Hz pacing restored after SMA suppression", "value": "did not affect normal excitation-contraction coupling"}, {"measurement": "time to suppression of SMA", "setting": "rat left atria [2]; 25 μM SKF-96365, 2-APB-treated left atria, absence of pacing", "value": "2 to 3", "unit": "min"}, {"measurement": "prevention of SMA by pre-treatment", "setting": "rat left atria [2]; 50 μM SKF-96365 for 10 min, then 2-APB 0-30 μM, measured ~10 min later without pacing, hydrochloride", "value": "prevents the appearance of SMA"}, {"measurement": "IC50", "setting": "rat left atria [2]; Rattus norvegicus, read-out: IC50 for inhibition (reversal) of SMA", "value": "~15", "unit": "µM"}, {"measurement": "effect on 2-APB-induced sporadic ectopic activity (SMA)", "setting": "rat left atria [2]; titration after appearance of SMA, absence of pacing", "value": "suppressed SMA"}, {"measurement": "time to suppression of SMA", "setting": "rat left atria [2]; various concentrations of SKF-96365 (about 10-65 μM)", "value": "2 to 3", "unit": "min"}, {"measurement": "triggered activity after exposure to SKF-96365", "setting": "rat left atria [3]; 25 nM ATX II, 20 μM SKF-96365 for ~5 min, 1 Hz pacing, hydrochloride", "value": "shows no triggered activity; also recorded: shows no triggered events; also recorded: suppresses triggered activity"}, {"measurement": "effect on left atrial force of contraction / mechanical performance (titration)", "setting": "rat left atria [3]; 25 nM ATX II, 1 Hz-paced, ~5 min at each concentration, hydrochloride", "value": "did not decrease the mechanical performance; also recorded: did not affect left atrial force of contraction"}, {"measurement": "prevention of triggered activity by pre-treatment", "setting": "rat left atria [3]; SKF-96365 20 μM (legend 20-25 μM) for ~10 min before 25 nM ATX II, recorded over 10-15 min, hydrochloride", "value": "prevents the appearance of triggered activity; also recorded: triggered activity does not occur"}, {"measurement": "time to reversal of triggered activity", "setting": "rat left atria [3]; SKF-96365 added to superfusate of left atria undergoing ATX II triggered activity", "value": "2 to 5", "unit": "min"}, {"measurement": "time to restoration of normal patterns of excitation-contraction", "setting": "rat left atria [4]; ~40 μM SKF-96365, 300 nM BayK 8644 + 20 μM 2-APB", "value": "5 to 8", "unit": "min"}, {"measurement": "effect on chaotic, fibrillation-like mechanical activity", "setting": "rat left atria [4]; ~40 μM SKF-96365, hydrochloride", "value": "restores normal patterns of excitation-contraction; also recorded: no longer contracted chaotically"}, {"measurement": "time to reversal of STA", "setting": "rat left atria [5]; 300 nM BayK 8644 + 20 μM 2-APB, SKF-96365 (10 μM), absence of pacing", "value": "2 to 3", "unit": "min"}, {"measurement": "effect on STA initiated by BayK 8644 and 2-APB", "setting": "rat left atria [5]; 300 nM BayK 8644 + 20 μM 2-APB, zatebradine 70 μM, ZD-7288 10-100 μM, SKF-96365 about 10-70 μM, hydrochloride", "value": "reverses STA"}, {"measurement": "effect on normal excitation-contraction coupling", "setting": "rat left atria [5]; after STA reversal, 0.1 Hz pacing restored", "value": "did not affect normal excitation-contraction coupling"}]}]}
